No end group written: not given here. KLH = keyhole limpet hemocyanin
What was measured:
human αSyn = experiment: Antibody-inducing ability in mice: ELISA antibody titer of immune serum with respect to human αSyn; type: in vivo, mouse
Method in brief: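 Female balb/c mice, 6 weeks old, immunized i.m. twice 2 weeks apart with peptide conjugates (250 μg/mouse; KLH-DMPVDPDN 25 μg/mouse) plus Alum 50 μg/mouse. Serum taken 2 weeks after second dose. IgG titer measured by ELISA on human αSyn (0.2 μg/well) or aggregated αSyn (15 ng/well), A450; titers expressed as log relative to control conjugate.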

aggregated human αSyn = aggregated human αSyn (Homo sapiens, UniProt P37840); experiment: Aggregated human αSyn-neutralizing effect of antibody induced in mice: phosphorylation of human αSyn in SH-SY5Y cells; type: cell-based; design: purchased Stress Marq (StressMarq Biosciences Inc.); details: antibody (100 μg/mL) induced in C57BL/6 mice by the vaccine; FIG. 1B, isotype control = 100
Procedure: The aggregated human αSyn-neutralizing effect of the antibody induced in the mice by the AJ-human αSyn peptide conjugate (AJ-p54) produced in Example 1 was evaluated. Physiological saline or the AJ-human αSyn peptide conjugate (250 μg/mouse) was intramuscularly administered to C57BL/6 mice (males, 6 weeks old, CLEA Japan, Inc.) four times at a 2-week interval using CFA (DIFCO) as an adjuvant. Furthermore, KLH-DMPVDPDN (25 μg/mouse) was administered using Alum (InvivoGen, 50 μg/mouse) as an adjuvant. Two weeks after the fourth administration, serum was recovered. After recovering the antibodies comprised in the serum by Protein G HP SpinTrap (Cytiva), the human αSyn- and aggregated human αSyn-neutralizing effect was evaluated by a method described below.
As the human αSyn- and aggregated human αSyn-neutralizing effect, the influence on phosphorylation of human αSyn in SH-SY5Y cells (ATCC) was evaluated. The SH-SY5Y cells were seeded in a 96-well plate at 2×10^4 cells/well and cultured under the conditions of 37° C. and 5% CO2. […] After fixing the cells with a 4% paraformaldehyde/phosphate buffer solution (FUJIFILM Wako Pure Chemical Corporation), phosphorylated human αSyn was stained with a fluorescence-labeled anti-phosphorylated αSyn antibody (Cell Signaling). The amount of phosphorylated human αSyn was evaluated by image analysis using ArrayScan (Thermo Fisher Scientific Inc.). […]

Phosphorylation of human αSyn in SH-SY5Y cells to which aggregated human αSyn was added (aggregated human αSyn): inhibited
Substance: KLH-C-DMPVDPDN ({KLH}-CDMPVDPDN) [KLH-DMPVDPDN, comparison vaccine, reference compound]
Induction of the antibody to human αSyn in the mouse serum (in words) (human αSyn; Example 2, balb/c mice): induction of the antibody to human αSyn was also confirmed
Antibody titer with respect to human αSyn (N = 4 − 6, mean ± standard deviation) (human αSyn; Example 2, balb/c mice, i.m. twice at 2-week interval, Alum, AJ conjugates 250 μg/mouse, KLH-DMPVDPDN 25 μg/mouse, serum 2 weeks after second administration): 5461 ± 2365
Induction of the antibody to human αSyn (in words) (human αSyn; Example 4, balb/c mice): induced the antibody to human αSyn
Antibody titer with respect to human αSyn (mean ± standard deviation) (human αSyn; Example 4, balb/c mice, i.m. twice at 2-week interval, Alum, AJ conjugates 250 μg/mouse, KLH-DMPVDPDN 25 μg/mouse): 1792 ± 1536
